{"source": "paper PMC10382584", "about": "“Macrocyclization of linear molecules by deep learning to facilitate macrocyclic drug candidates discovery” (Nature Communications, 2023);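 also: KINOMEscan kinase panel binding assay, signal normalized between DMSO as 100% and a positive control compound as 0%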", "assay_in_all_cases": "biochemical", "design_in_all_cases": "DiscoveRx KINOMEscan competition binding, percent of DMSO control signal at 100 nM", "details_in_all_cases": "read-out: Fig. 4a / Percent Control / Compound 1; percent of DMSO control, competition binding", "key": {"[1]": {"biological_target": "T1, ABL1(Q252H)-nonphosphorylated (Homo sapiens, UniProt P00519, Q252H)", "T1 construct": "nonphosphorylated", "procedure": "(§1) The kinase selectivity profile was performed by using the DiscoveRx KINOMEscan platform. […] Test compounds were prepared as 40× stocks in 100% DMSO and directly diluted into the assay. The results were defined as a percentage of signal between the negative (DMSO, 100% control) and the positive (control compound, 0% control) control, which was calculated as follows: percent control = [(test compound signal − positive control signal)/(negative control signal − positive control signal)] × 100."}, "ADCK3": {"biological_target": "T2, ADCK3 (Homo sapiens, UniProt Q8NI60)", "T2 construct": "gene COQ8A", "procedure": "as §1"}, "AMPK-alpha1": {"biological_target": "T3, AMPK-alpha1 (Homo sapiens, UniProt Q13131)", "T3 construct": "gene PRKAA1", "procedure": "as §1"}, "BMPR1A": {"biological_target": "BMPR1A (Homo sapiens, UniProt P36894)", "sequence (P36894 whole entry)": "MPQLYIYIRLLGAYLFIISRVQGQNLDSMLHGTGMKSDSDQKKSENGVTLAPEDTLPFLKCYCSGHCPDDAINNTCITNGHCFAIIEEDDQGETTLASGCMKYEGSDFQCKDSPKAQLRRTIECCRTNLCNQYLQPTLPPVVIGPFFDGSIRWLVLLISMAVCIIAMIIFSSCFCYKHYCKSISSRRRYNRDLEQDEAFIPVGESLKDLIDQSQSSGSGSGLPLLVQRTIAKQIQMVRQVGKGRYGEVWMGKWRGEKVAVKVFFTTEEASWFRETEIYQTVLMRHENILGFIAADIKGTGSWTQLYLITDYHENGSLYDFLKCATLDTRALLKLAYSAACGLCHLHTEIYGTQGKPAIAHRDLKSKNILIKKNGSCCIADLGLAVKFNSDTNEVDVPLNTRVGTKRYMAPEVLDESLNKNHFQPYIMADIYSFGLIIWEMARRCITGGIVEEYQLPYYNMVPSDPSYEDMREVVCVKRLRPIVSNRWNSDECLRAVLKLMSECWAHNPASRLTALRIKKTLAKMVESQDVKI", "procedure": "as §1"}, "CDK3": {"biological_target": "CDK3 (Homo sapiens, UniProt Q00526)", "sequence (Q00526 whole entry)": "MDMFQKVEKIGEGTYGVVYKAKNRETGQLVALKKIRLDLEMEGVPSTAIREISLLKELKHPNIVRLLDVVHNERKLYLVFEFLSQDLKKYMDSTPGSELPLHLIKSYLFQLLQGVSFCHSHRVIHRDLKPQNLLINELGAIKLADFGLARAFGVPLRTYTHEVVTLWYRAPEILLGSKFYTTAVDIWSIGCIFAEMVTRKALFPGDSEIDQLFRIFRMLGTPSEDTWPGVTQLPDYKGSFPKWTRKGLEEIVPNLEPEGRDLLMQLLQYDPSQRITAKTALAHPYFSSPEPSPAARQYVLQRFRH", "procedure": "as §1"}, "DAPK1": {"biological_target": "DAPK1 (Homo sapiens, UniProt P53355)", "procedure": "as §1"}, "FAK": {"biological_target": "T4, FAK (Homo sapiens, UniProt Q05397)", "T4 construct": "gene PTK2", "procedure": "as §1"}, "FGFR3(G697C)": {"biological_target": "FGFR3(G697C) (Homo sapiens, UniProt P22607, G697C)", "sequence (P22607 whole entry G697C)": "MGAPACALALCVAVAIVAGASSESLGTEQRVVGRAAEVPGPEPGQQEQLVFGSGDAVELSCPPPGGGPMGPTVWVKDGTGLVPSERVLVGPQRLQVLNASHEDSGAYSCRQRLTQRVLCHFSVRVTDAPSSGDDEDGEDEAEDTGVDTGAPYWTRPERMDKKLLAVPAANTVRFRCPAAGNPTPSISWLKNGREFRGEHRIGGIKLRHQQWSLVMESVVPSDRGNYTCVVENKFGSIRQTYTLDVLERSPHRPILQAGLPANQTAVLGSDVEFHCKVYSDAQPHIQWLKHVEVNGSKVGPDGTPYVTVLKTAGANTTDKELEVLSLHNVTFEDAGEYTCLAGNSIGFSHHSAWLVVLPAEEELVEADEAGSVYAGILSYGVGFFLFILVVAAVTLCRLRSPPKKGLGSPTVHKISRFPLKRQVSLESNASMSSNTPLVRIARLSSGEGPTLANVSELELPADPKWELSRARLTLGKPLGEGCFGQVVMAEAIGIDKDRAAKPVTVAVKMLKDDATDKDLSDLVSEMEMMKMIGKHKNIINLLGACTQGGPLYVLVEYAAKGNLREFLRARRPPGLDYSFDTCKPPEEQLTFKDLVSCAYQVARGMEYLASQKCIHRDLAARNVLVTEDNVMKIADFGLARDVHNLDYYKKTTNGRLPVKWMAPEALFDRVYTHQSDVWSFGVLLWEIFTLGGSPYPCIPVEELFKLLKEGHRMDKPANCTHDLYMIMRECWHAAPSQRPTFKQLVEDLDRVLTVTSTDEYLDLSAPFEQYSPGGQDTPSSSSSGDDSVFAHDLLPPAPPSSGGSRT", "procedure": "as §1"}, "FLT3(R834Q)": {"biological_target": "FLT3(R834Q) (Homo sapiens, UniProt P36888, R834Q)", "procedure": "as §1"}, "GSK3A": {"biological_target": "GSK3A (Homo sapiens, UniProt P49840)", "sequence (P49840 whole entry)": "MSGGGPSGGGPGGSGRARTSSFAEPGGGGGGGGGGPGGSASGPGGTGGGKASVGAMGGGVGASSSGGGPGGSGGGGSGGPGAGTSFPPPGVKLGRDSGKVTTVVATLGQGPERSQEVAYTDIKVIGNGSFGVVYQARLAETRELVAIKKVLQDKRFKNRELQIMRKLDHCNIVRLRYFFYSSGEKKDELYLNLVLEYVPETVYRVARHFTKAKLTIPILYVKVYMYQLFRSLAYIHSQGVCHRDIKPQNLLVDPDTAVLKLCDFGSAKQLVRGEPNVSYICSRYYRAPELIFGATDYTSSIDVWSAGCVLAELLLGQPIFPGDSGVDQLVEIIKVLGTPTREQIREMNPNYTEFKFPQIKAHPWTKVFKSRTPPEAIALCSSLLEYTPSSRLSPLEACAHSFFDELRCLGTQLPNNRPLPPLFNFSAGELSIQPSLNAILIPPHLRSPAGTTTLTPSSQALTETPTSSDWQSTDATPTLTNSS", "procedure": "as §1"}, "ITK": {"biological_target": "ITK (Homo sapiens, UniProt Q08881)", "procedure": "as §1"}, "KIT(A829P)": {"biological_target": "KIT(A829P) (Homo sapiens, UniProt P10721, A829P)", "procedure": "as §1"}, "LATS1": {"biological_target": "LATS1 (Homo sapiens, UniProt O95835)", "procedure": "as §1"}, "LCK": {"biological_target": "LCK (Homo sapiens, UniProt P06239)", "procedure": "as §1"}, "LIMK2": {"biological_target": "LIMK2 (Homo sapiens, UniProt P53671)", "sequence (P53671 whole entry)": "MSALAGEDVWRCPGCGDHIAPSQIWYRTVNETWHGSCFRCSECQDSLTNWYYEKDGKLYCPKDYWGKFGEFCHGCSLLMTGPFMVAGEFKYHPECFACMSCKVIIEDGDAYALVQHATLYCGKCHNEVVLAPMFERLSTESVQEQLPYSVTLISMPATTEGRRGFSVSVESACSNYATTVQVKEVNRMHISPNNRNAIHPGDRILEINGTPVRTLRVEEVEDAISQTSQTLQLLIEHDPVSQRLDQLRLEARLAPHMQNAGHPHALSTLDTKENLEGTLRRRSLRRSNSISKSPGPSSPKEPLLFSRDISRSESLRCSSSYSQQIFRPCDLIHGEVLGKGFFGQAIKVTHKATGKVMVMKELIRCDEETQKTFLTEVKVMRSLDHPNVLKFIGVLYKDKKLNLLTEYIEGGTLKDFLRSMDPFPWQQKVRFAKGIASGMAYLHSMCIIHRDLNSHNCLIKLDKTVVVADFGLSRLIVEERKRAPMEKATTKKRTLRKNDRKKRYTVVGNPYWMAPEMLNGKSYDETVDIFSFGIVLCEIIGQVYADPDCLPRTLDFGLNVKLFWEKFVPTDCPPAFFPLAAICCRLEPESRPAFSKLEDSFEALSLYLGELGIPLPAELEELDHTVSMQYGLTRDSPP", "procedure": "as §1"}, "MAP4K5": {"biological_target": "MAP4K5 (Homo sapiens, UniProt Q9Y4K4)", "procedure": "as §1"}, "MKNK1": {"biological_target": "MKNK1 (Homo sapiens, UniProt Q9BUB5)", "procedure": "as §1"}, "MST1": {"biological_target": "T5, MST1 (Homo sapiens, UniProt Q13043)", "T5 construct": "gene STK4", "procedure": "as §1"}, "MST4": {"biological_target": "T6, MST4 (Homo sapiens, UniProt Q9P289)", "T6 construct": "gene STK26", "procedure": "as §1"}, "NEK10": {"biological_target": "NEK10 (Homo sapiens, UniProt Q6ZWH5)", "procedure": "as §1"}, "PIK3CA(Q546K)": {"biological_target": "PIK3CA(Q546K) (Homo sapiens, UniProt P42336, Q546K)", "sequence (P42336 whole entry Q546K)": "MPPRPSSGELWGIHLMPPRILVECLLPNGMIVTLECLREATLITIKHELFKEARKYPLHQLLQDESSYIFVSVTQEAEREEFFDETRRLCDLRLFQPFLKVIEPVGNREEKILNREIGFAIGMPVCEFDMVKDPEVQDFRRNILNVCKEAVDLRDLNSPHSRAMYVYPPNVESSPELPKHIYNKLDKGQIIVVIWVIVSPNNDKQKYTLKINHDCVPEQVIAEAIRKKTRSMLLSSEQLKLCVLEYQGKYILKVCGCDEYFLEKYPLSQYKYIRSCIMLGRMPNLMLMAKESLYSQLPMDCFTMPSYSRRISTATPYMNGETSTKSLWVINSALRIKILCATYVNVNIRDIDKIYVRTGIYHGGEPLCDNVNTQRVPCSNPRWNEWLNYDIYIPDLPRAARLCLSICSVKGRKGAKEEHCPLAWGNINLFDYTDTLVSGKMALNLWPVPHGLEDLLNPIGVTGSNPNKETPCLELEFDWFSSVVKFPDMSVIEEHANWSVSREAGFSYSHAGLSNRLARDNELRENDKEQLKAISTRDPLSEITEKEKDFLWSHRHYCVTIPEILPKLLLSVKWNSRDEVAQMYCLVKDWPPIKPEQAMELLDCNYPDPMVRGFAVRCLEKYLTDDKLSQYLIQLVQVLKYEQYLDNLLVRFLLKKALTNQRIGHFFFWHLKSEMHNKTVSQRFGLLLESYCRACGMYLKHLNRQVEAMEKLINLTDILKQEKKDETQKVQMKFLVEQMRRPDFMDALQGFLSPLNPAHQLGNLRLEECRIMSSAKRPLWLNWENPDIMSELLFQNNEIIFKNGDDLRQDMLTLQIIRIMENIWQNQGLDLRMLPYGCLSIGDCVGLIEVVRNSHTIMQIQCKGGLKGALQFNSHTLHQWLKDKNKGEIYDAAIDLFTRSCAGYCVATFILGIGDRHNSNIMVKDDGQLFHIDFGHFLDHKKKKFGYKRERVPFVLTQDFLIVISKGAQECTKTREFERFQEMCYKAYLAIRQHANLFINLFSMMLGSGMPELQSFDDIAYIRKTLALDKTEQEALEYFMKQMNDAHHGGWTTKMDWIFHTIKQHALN", "procedure": "as §1"}, "PIK4CB": {"biological_target": "T7, PIK4CB (Homo sapiens, UniProt Q9UBF8)", "T7 construct": "gene PI4KB", "procedure": "as §1"}, "PRKCH": {"biological_target": "PRKCH (Homo sapiens, UniProt P24723)", "sequence (P24723 whole entry)": "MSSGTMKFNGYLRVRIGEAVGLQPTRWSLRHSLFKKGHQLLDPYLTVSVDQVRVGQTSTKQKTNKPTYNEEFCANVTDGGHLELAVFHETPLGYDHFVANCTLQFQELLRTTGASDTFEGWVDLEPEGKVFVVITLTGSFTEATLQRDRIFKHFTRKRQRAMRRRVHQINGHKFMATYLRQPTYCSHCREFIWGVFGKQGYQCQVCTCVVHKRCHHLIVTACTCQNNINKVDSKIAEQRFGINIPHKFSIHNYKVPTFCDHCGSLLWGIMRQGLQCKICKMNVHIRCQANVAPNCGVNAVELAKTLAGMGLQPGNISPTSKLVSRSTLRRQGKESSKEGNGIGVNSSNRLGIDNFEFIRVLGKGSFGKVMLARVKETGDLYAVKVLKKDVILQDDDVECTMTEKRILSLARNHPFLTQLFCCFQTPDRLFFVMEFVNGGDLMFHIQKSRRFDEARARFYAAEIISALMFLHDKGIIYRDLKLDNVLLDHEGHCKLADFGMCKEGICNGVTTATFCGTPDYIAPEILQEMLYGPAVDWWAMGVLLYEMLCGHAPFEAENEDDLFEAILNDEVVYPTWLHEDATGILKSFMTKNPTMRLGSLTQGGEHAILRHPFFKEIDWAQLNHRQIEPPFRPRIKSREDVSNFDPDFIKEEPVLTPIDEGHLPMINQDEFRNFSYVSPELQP", "procedure": "as §1"}, "STK35": {"biological_target": "STK35 (Homo sapiens, UniProt Q8TDR2)", "sequence (Q8TDR2 whole entry)": "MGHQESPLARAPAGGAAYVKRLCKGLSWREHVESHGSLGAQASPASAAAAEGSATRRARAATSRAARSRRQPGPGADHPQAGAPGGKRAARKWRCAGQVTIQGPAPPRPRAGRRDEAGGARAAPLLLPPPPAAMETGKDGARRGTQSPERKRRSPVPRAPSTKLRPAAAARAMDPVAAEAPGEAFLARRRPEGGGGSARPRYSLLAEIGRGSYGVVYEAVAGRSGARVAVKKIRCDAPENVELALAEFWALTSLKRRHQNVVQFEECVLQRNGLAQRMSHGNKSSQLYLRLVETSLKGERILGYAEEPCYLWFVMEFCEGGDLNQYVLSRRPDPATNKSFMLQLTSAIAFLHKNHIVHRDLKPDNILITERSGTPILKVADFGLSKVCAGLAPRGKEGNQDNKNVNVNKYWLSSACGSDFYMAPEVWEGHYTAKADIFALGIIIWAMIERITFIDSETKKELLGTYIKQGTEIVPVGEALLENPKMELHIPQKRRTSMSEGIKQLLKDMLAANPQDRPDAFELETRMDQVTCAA", "procedure": "as §1"}, "TBK1": {"biological_target": "TBK1 (Homo sapiens, UniProt Q9UHD2)", "procedure": "as §1"}}}
{"compound": "Cc1cnc2nc1Nc1cccc(c1)COCc1cc(ccc1OCCN1CCCC1)N2", "note": "[Compound 1]", "values": [{"measurement": "remaining binding at 0.1 µM", "setting": "[1]", "result": 51, "unit": "%"}, {"measurement": "remaining binding at 0.1 µM", "setting": "ADCK3", "result": 96, "unit": "%"}, {"measurement": "remaining binding at 0.1 µM", "setting": "AMPK-alpha1", "result": 100, "unit": "%"}, {"measurement": "remaining binding at 0.1 µM", "setting": "BMPR1A", "result": 97, "unit": "%"}, {"measurement": "remaining binding at 0.1 µM", "setting": "CDK3", "result": 91, "unit": "%"}, {"measurement": "remaining binding at 0.1 µM", "setting": "DAPK1", "result": 94, "unit": "%"}, {"measurement": "remaining binding at 0.1 µM", "setting": "FAK", "result": 95, "unit": "%"}, {"measurement": "remaining binding at 0.1 µM", "setting": "FGFR3(G697C)", "result": 94, "unit": "%"}, {"measurement": "remaining binding at 0.1 µM", "setting": "FLT3(R834Q)", "result": 23, "unit": "%"}, {"measurement": "remaining binding at 0.1 µM", "setting": "GSK3A", "result": 100, "unit": "%"}, {"measurement": "remaining binding at 0.1 µM", "setting": "ITK", "result": 93, "unit": "%"}, {"measurement": "remaining binding at 0.1 µM", "setting": "KIT(A829P)", "result": 45, "unit": "%"}, {"measurement": "remaining binding at 0.1 µM", "setting": "LATS1", "result": 100, "unit": "%"}, {"measurement": "remaining binding at 0.1 µM", "setting": "LCK", "result": 72, "unit": "%"}, {"measurement": "remaining binding at 0.1 µM", "setting": "LIMK2", "result": 92, "unit": "%"}, {"measurement": "remaining binding at 0.1 µM", "setting": "MAP4K5", "result": 98, "unit": "%"}, {"measurement": "remaining binding at 0.1 µM", "setting": "MKNK1", "result": 93, "unit": "%"}, {"measurement": "remaining binding at 0.1 µM", "setting": "MST1", "result": 100, "unit": "%"}, {"measurement": "remaining binding at 0.1 µM", "setting": "MST4", "result": 100, "unit": "%"}, {"measurement": "remaining binding at 0.1 µM", "setting": "NEK10", "result": 95, "unit": "%"}, {"measurement": "remaining binding at 0.1 µM", "setting": "PIK3CA(Q546K)", "result": 70, "unit": "%"}, {"measurement": "remaining binding at 0.1 µM", "setting": "PIK4CB", "result": 79, "unit": "%"}, {"measurement": "remaining binding at 0.1 µM", "setting": "PRKCH", "result": 91, "unit": "%"}, {"measurement": "remaining binding at 0.1 µM", "setting": "STK35", "result": 92, "unit": "%"}, {"measurement": "remaining binding at 0.1 µM", "setting": "TBK1", "result": 76, "unit": "%"}]}
